Where two headings read alike, the source gives them in different places.
Assays:
15-PGDH de type 1 = target: T1, 15-PGDH de type 1 (Homo sapiens, UniProt P15428); assay: Test on 15-PGDH type 1: spectrophotometric enzyme inhibition at 340 nm (NAD, PGE2 substrate); type: biochemical
T1 construct: made in house
T1 sequence (P15428 1-266): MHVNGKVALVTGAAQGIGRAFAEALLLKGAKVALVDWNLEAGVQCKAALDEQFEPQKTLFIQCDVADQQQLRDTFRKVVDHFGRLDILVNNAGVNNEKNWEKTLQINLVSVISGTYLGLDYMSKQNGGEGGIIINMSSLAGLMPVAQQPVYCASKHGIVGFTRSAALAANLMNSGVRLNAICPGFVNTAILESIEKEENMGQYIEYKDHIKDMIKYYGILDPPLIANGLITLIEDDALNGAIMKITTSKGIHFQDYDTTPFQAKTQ
Protocol: L'enzyme 15-PGDH est obtenue comme décrit dans la demande FR 02/05067 déposée au nom de L'Oréal, en suspension dans un milieu adapté à une concentration de 0,3 mg/mL puis bloquée à - 80°C. Pour les besoins du test, cette suspension est décongelée et stockée dans de la glace.
Par ailleurs on prépare un tampon Tris 100 mM, pH = 7,4, contenant 0,1 mM de dithiothréitol (D5545, Sigma-Aldrich, L'isle D'Abeau Chesne, BP 701, 38297, Saint Quentin Fallavier), 1,5 mM de β-NAD (N6522, Sigma-Aldrich, L'isle D'Abeau Chesne, BP 701, 38297, Saint Quentin Fallavier), 50 µM de Prostaglandine E2 (P4172, Sigma-Aldrich, L'isle D'Abeau Chesne, BP 701, 38297, Saint Quentin Fallavier).
Dans la cuve d'un spectrophotomètre (Perkin-Elmer, Lambda 2) thermostaté à 37°C, dont la longueur d'onde de mesure est réglée à 340 nm, sont introduits 0,965 ml de ce tampon (préalablement porté à 37°C). 0,035 mL de suspension enzymatique à 37°C sont introduits dans la cuve concomitamment à l'enregistrement ( correspondant à une augmentation de la densité optique à 340 nm). La vitesse maximale de réaction est relevée.

[1] = tested on: activité tyrosinase de mélanocytes humains normaux; assay: Tyrosinase activity of cultured normal human melanocytes after 72 h treatment (L-Dopa substrate, absorbance 450 nm); type: cell-based; conditions: Melanocyte, read-out: Stimulation de l'activité tyrosinase
Protocol: Des mélanocytes épidermiques humains normaux sont cultivés (9ème passage) dans le milieu "mélanocytes growth medium M2" additionné Des compléments Promocell C24300. De pénicilline 50 UI/ml et de streptomycine 50 µg/ml (Invitrogen) dans des conditions classiques de température (37°C) sous 5% de CO2.
Le composé 5 est solubilisé dans de l'éthanol absolu (PGE2) ou dans du DMSO (inhibiteurs de 15-PGDH). Le titre final des solutions préparées est de 10 mM. Les concentrations finales testées varient de 0.1 à 10 µM (PGE2) et 1 à 10 µM (inhibiteurs de 15-PGDH).
Les essais réalisés consistent à mesurer l'effet d'inhibiteur de 15-PGDH seul ou associé à PGE2* sur l'activité globale de la tyrosinase. * PGE2 est un modulateur de pigmentation désactivé par l'enzyme 15-PGDH.
Les mélanocytes sont cultivés en plaques 96 puits jusqu'à confluence (conditions de culture décrites en a), puis le surnageant de chacun des puits est éliminé et remplacé par du milieu contenant les composés à évaluer.
Soit donc (en triplicate) l' inhibiteur de 15-PGDH seul à 1 µM et 10 µM ou pour chacune de ces premières conditions en présence de 0.1 µM, 1 µM ou 10 µM de PGE2.
Dans ces différentes conditions les cultures sont maintenues 72h00, les surnageants sont ensuite éliminés, les tapis cellulaires sont lavés avec un tampon phosphate (pH=7.2). Les cellules sont lysées avec un tampon phosphate pH=7.2 contenant 1% de triton X100.
L'activité tyrosinase de chacun des lysats est ensuite estimée contre une gamme tyrosinase de champignon (Sigma T7755).
La méthodologie mise en oeuvre utilise la L-Dopa comme substrat de réaction (45 min à 37°C), la formation de mélanine est appréciée par mesure de l'absorbance à 450 nm.
Dans ce test, deux références sont également évaluée: l'acide kojique (un inhibiteur de tyrosinase introduite à 0.1% dans le milieu de culture) et l'isobutyle méthyle xanthine (IBMX) un inhibiteur de phosphodiesterase qui limitant le catabolisme de l'AMPc contribue à l'augmentation de l'activité tyrosinase globale telle qu'appréciée dans ce test.

SMILES | inhibition at 100 µM (15-PGDH de type 1) | other results
CC(C)(C)CC(C)(C)c1ccc(Oc2ccccc2/C=C2/SC(=O)NC2=O)cc1 [compound 15] | 27% | –
CC(C)(C)c1ccc(Oc2ccccc2/C=C2\SC(=O)NC2=O)cc1 [Composé 4] | – | activation at 1 µM [1]: 16%
O=C1NC(=O)/C(=C/c2ccccc2Oc2ccc(F)cc2)S1 [compound 6] | 48% | –
CC(C)(C)c1ccc(Oc2ccccc2/C=C2\SC(=O)NC2=O)c(C(C)(C)C)c1 [compound 17] | 30% | –
CCN1C(=O)S/C(=C\c2ccccc2Oc2ccc(C(C)(C)C)cc2)C1=O [compound 13] | 23% | –
CCCCC[C@H](O)/C=C/[C@H]1[C@H](O)CC(=O)[C@@H]1C/C=C\CCCC(=O)O [PGE2, Prostaglandine E2] | – | activation at 0.1 µM ([1]; PGE2 alone at 0,1 µM): 3%; activation at 1 µM ([1]; PGE2 alone at 1 uM): 9%; activation at 10 µM ([1]; PGE2 alone at 10 uM): 15%

— patent publication EP1738741A2, “Use of benzylidene-1,3-thiazolidine-2,4-diones for favouring and/or inducing and/or stimulating the pigmentation of keratinic materials and/or for limiting their depigmentation and/or their bleaching” (L'ORÉAL, priority 2005, dated 2007)
